Key:
[1] = AUC (0 to infinity) in P-gp-knockout Sprague-Dawley rat at 2 mg/kg, iv; assay type: ADME, organism-based; design: time infinity, dose 2 mg/kg, route intravenous; details: plasma
[2] = Cmax in P-gp-knockout Sprague-Dawley rat at 2 mg/kg, iv; assay type: ADME, organism-based; design: dose 2 mg/kg, route intravenous; details: in vivo
[3] = Half life in P-gp-knockout Sprague-Dawley rat at 2 mg/kg, iv; assay type: ADME, organism-based; design: dose 2 mg/kg, route intravenous; details: in vivo
[4] = Volume of distribution at steady state in P-gp-knockout Sprague-Dawley rat at 2 mg/kg, iv; assay type: ADME, organism-based; design: dose 2 mg/kg, route intravenous; details: in vivo, read-out: Vdss
[5] = Mean residence time in P-gp-knockout Sprague-Dawley rat at 2 mg/kg, iv; assay type: ADME, organism-based; design: dose 2 mg/kg, route intravenous; details: in vivo
[6] = tested on: Rattus norvegicus; assay: Intestinal clearance in wild-type bile duct-cannulated Sprague-Dawley rat at 2 mg/kg, iv relative to total clearance; assay type: ADME, organism-based; design: dose 2 mg/kg, route intravenous; details: in vivo
[7] = tested on: Rattus norvegicus; assay: Intestinal clearance in P-gp-knockout Sprague-Dawley rat at 2 mg/kg, iv; assay type: ADME, organism-based; design: dose 2 mg/kg, route intravenous; details: in vivo
[8] = tested on: Rattus norvegicus; assay: Renal clearance in P-gp-knockout Sprague-Dawley rat at 2 mg/kg, iv relative to total clearance; assay type: ADME, organism-based, Kidney; design: dose 2 mg/kg, route intravenous; details: in vivo
[9] = tested on: Rattus norvegicus; assay: Intestinal clearance in wild-type bile duct-cannulated Sprague-Dawley rat at 2 mg/kg, iv administered 0.125 hr post GF-120918 treatment relative to total clearance; assay type: ADME, organism-based; design: dose 2 mg/kg, route intravenous; details: in vivo
[10] = tested on: Rattus norvegicus; assay: Metabolism and biliary clearance at 8 hrs in wild-type bile duct-cannulated Sprague-Dawley rat at 2 mg/kg, iv administered 0.125 hr post GF-120918 treatment relative to total clearance; assay type: ADME, organism-based; design: dose 2 mg/kg, route intravenous; details: in vivo
[11] = Cmax in wild-type 30 mins activated charcoal pre-treated bile duct-cannulated Sprague-Dawley rat at 2 mg/kg, iv followed by activated charcoal administration 5 to 180 mins post compound dosing; assay type: ADME, organism-based; design: dose 2 mg/kg, route intravenous; details: in vivo
[12] = Clearance in wild-type 30 mins activated charcoal pre-treated bile duct-cannulated Sprague-Dawley rat at 2 mg/kg, iv followed by activated charcoal administration 5 to 180 mins post compound dosing; assay type: ADME, organism-based; design: dose 2 mg/kg, route intravenous; details: in vivo
[13] = Volume of distribution at steady state in wild-type 30 mins activated charcoal pre-treated bile duct-cannulated Sprague-Dawley rat at 2 mg/kg, iv followed by activated charcoal administration 5 to 180 mins post compound dosing; assay type: ADME, organism-based; design: dose 2 mg/kg, route intravenous; details: in vivo, read-out: Vdss
[14] = tested on: Rattus norvegicus; assay: Renal clearance in wild-type 30 mins activated charcoal pre-treated bile duct-cannulated Sprague-Dawley rat at 2 mg/kg, iv followed by activated charcoal administration 5 to 180 mins post compound dosing relative to total clearance; assay type: ADME, organism-based, Kidney; design: dose 2 mg/kg, route intravenous; details: in vivo
[15] = Cmax in bile duct-cannulated beagle dog at 1 mg/kg, iv administered as 5 mins infusion; assay type: ADME, organism-based, Canis lupus familiaris; design: dose 1 mg/kg, route intravenous; details: in vivo
[16] = tested on: Canis familiaris; assay: Clearance in bile duct-cannulated beagle dog at 1 mg/kg, iv administered as 5 mins infusion; assay type: ADME, organism-based, Canis lupus familiaris; design: dose 1 mg/kg, route intravenous; details: in vivo
[17] = Cmax in bile duct-cannulated beagle dog at 1 mg/kg, iv administered as 5 mins infusion followed by activated charcoal administration 10 to 420 mins post compound dosing; assay type: ADME, organism-based, Canis lupus familiaris; design: dose 1 mg/kg, route intravenous; details: in vivo
[18] = Half life in bile duct-cannulated beagle dog at 1 mg/kg, iv administered as 5 mins infusion followed by activated charcoal administration 10 to 420 mins post compound dosing; assay type: ADME, organism-based, Canis lupus familiaris; design: dose 1 mg/kg, route intravenous; details: in vivo
[19] = Volume of distribution at steady state in bile duct-cannulated beagle dog at 1 mg/kg, iv administered as 5 mins infusion followed by activated charcoal administration 10 to 420 mins post compound dosing; assay type: ADME, organism-based, Canis lupus familiaris; design: dose 1 mg/kg, route intravenous; details: in vivo, read-out: Vdss
[20] = Mean residence time in bile duct-cannulated beagle dog at 1 mg/kg, iv administered as 5 mins infusion followed by activated charcoal administration 10 to 420 mins post compound dosing; assay type: ADME, organism-based, Canis lupus familiaris; design: dose 1 mg/kg, route intravenous; details: in vivo
[21] = Drug recovery in urine of bile duct-cannulated beagle dog at 1 mg/kg, iv administered as 5 mins infusion followed by activated charcoal administration 10 to 420 mins post compound measured up to 72 hrs; assay type: ADME, organism-based, Canis lupus familiaris; design: dose 1 mg/kg, route intravenous; details: read-out: Drug recovery
[22] = Drug recovery in urine of beagle dog at 1 mg/kg, iv administered as 5 mins infusion measured up to 72 hrs; assay type: ADME, organism-based, Canis lupus familiaris; design: dose 1 mg/kg, route intravenous; details: read-out: Drug recovery
[23] = Drug recovery in urine of beagle dog at 5 mg/kg, po measured up to 72 hrs; assay type: ADME, organism-based, Canis lupus familiaris; design: dose 5 mg/kg, route oral; details: read-out: Drug recovery
[24] = Drug recovery in urine of bile duct-cannulated Sprague-Dawley rat at 2 mg/kg, iv administered 1 hr post GF-120918 treatment measured up to 48 hrs; assay type: ADME, organism-based; design: dose 2 mg/kg, route intravenous; details: with GF-120918, given 1 hr before the compound, read-out: Drug recovery
[25] = Drug recovery in urine of 30 mins activated charcoal pre-treated bile duct-cannulated Sprague-Dawley rat at 2 mg/kg, iv followed by activated charcoal administration 5 to 180 mins post compound dosing measured up to 48 hrs; assay type: ADME, organism-based; design: dose 2 mg/kg, route intravenous; details: read-out: Drug recovery
[26] = Drug recovery in urine of bile duct-cannulated P-gp-knockout Sprague-Dawley rat at 2 mg/kg, iv measured up to 24 hrs; assay type: ADME, organism-based; design: dose 2 mg/kg, route intravenous; details: read-out: Drug recovery
[27] = Drug recovery in urine of bile duct-cannulated BCRP-knockout Sprague-Dawley rat at 2 mg/kg, iv measured up to 24 hrs; assay type: ADME, organism-based; design: dose 2 mg/kg, route intravenous; details: read-out: Drug recovery
[28] = Drug recovery in urine of Sprague-Dawley rat at 30 mg/kg, po measured up to 168 hrs; assay type: ADME, organism-based; design: dose 30 mg/kg, route oral; details: read-out: Drug recovery
[29] = Drug recovery in urine of bile duct-cannulated Sprague-Dawley rat at 30 mg/kg, po measured up to 48 hrs; assay type: ADME, organism-based; design: dose 30 mg/kg, route oral; details: read-out: Drug recovery
[30] = Drug recovery in bile of bile duct-cannulated Sprague-Dawley rat at 2 mg/kg, iv measured up to 24 hrs; assay type: ADME, organism-based; design: dose 2 mg/kg, route intravenous; details: read-out: Drug recovery
[31] = AUC (0 to infinity) in BCRP-knockout Sprague-Dawley rat at 2 mg/kg, iv; assay type: ADME, organism-based; design: time infinity, dose 2 mg/kg, route intravenous; details: plasma
[32] = Half life in BCRP-knockout Sprague-Dawley rat at 2 mg/kg, iv; assay type: ADME, organism-based; design: dose 2 mg/kg, route intravenous; details: in vivo
[33] = tested on: Rattus norvegicus; assay: Metabolism and biliary clearance in BCRP-knockout Sprague-Dawley rat at 2 mg/kg, iv; assay type: ADME, organism-based, Bile; design: dose 2 mg/kg, route intravenous; details: in vivo
[34] = tested on: Rattus norvegicus; assay: Intestinal clearance in BCRP-knockout Sprague-Dawley rat at 2 mg/kg, iv relative to total clearance; assay type: ADME, organism-based; design: dose 2 mg/kg, route intravenous; details: in vivo
[35] = tested on: Rattus norvegicus; assay: Metabolism and biliary clearance in BCRP-knockout Sprague-Dawley rat at 2 mg/kg, iv relative to total clearance; assay type: ADME, organism-based, Bile; design: dose 2 mg/kg, route intravenous; details: in vivo
[36] = Plasma protein binding in beagle dog; assay type: ADME, cell-free, Canis lupus familiaris; details: read-out: PPB (converted)
[37] = Drug recovery in bile of bile duct-cannulated P-gp-knockout Sprague-Dawley rat at 2 mg/kg, iv measured up to 24 hrs; assay type: ADME, organism-based; design: dose 2 mg/kg, route intravenous; details: read-out: Drug recovery
[38] = Drug recovery in bile of bile duct-cannulated Sprague-Dawley rat at 30 mg/kg, po measured up to 48 hrs; assay type: ADME, organism-based; design: dose 30 mg/kg, route oral; details: read-out: Drug recovery
[39] = Drug recovery in feces of bile duct-cannulated Sprague-Dawley rat at 2 mg/kg, iv administered 1 hr post GF-120918 treatment measured up to 48 hrs; assay type: ADME, organism-based; design: dose 2 mg/kg, route intravenous; details: with GF-120918, given 1 hr before the compound, read-out: Drug recovery
[40] = Drug recovery in feces of bile duct-cannulated BCRP-knockout Sprague-Dawley rat at 2 mg/kg, iv measured up to 24 hrs; assay type: ADME, organism-based; design: dose 2 mg/kg, route intravenous; details: read-out: Drug recovery
[41] = Drug recovery in feces of Sprague-Dawley rat at 2 mg/kg, iv measured up to 168 hrs; assay type: ADME, organism-based; design: dose 2 mg/kg, route intravenous; details: read-out: Drug recovery
[42] = Cmax in wild-type bile duct-cannulated Sprague-Dawley rat at 2 mg/kg, iv; assay type: ADME, organism-based; design: dose 2 mg/kg, route intravenous; details: in vivo
[43] = Half life in wild-type bile duct-cannulated Sprague-Dawley rat at 2 mg/kg, iv; assay type: ADME, organism-based; design: dose 2 mg/kg, route intravenous; details: in vivo
[44] = Mean residence time in wild-type bile duct-cannulated Sprague-Dawley rat at 2 mg/kg, iv; assay type: ADME, organism-based; design: dose 2 mg/kg, route intravenous; details: in vivo
[45] = Renal clearance in wild-type bile duct-cannulated Sprague-Dawley rat at 2 mg/kg, iv; assay type: ADME, organism-based, Kidney; design: dose 2 mg/kg, route intravenous; details: in vivo
[46] = tested on: Rattus norvegicus; assay: Intestinal clearance in wild-type bile duct-cannulated Sprague-Dawley rat at 2 mg/kg, iv; assay type: ADME, organism-based; design: dose 2 mg/kg, route intravenous; details: in vivo

Compound `COc1ccc(-n2nc(C(N)=O)c3c2[14C](=O)N(c2ccc(N4CCCCC4=O)cc2)CC3)cc1` has an AUC(0-inf) [1] of 2040 ng·h/mL, a Cmax [2] of 2160 ng/mL and a half-life [3] of 1.1 h. It also gave a Vd [4] of 0.7 L/kg, an MRT [5] of 0.8 h and a CL [6] of 21%. For the same compound, the CL [7] was 3.67 mL/min/kg, the CL [8] was 43% and the CL [9] was 14%. It also gave a CL [10] of 36%, a Cmax [11] of 1640 ng/mL and a clearance [12] of 33.3 mL/min/kg. For the same compound, the Vd [13] was 1.2 L/kg, the CL [14] was 39% and the Cmax [15] was 4430 ng/mL. It also gave a CL [16] of 0.667 mL/min/kg, a Cmax [17] of 4330 ng/mL and a half-life [18] of 1.8 h. For the same compound, the Vd [19] was 0.2 L/kg, the MRT [20] was 1.9 h and the dose excreted [21] was 8.1%. The dose excreted [22] was 9.9%, the dose excreted at 72 h [23] was 8.8% and the dose excreted [24] was 50.6%. It also gave a dose excreted [25] of 40.7%, a dose excreted at 24 h [26] of 44.3% and a dose excreted at 24 h [27] of 35.5%. The dose excreted at 168 h [28] was 13.4%, the dose excreted at 48 h [29] was 10.5% and the dose excreted at 24 h [30] was 10.7%. It also gave an AUC(0-inf) [31] of 2340 ng·h/mL, a half-life [32] of 2.1 h and a CL [33] of 4.33 mL/min/kg. The CL [34] was 37%, the CL [35] was 30% and the fraction unbound [36] was 0.08. For the same compound, the dose excreted at 24 h [37] was 14.1%, the dose excreted at 48 h [38] was 2.6% and the dose excreted [39] was 13.8%. It also gave a dose excreted at 24 h [40] of 34.1%, a dose excreted at 168 h [41] of 41.1% and a Cmax [42] of 2260 ng/mL. It also gave a half-life [43] of 1.2 h, an MRT [44] of 0.6 h and a CL renal [45] of 11.8 mL/min/kg. The CL [46] was 5 mL/min/kg.

From ChEMBL document CHEMBL3526058, “Investigating the enteroenteric recirculation of apixaban, a factor Xa inhibitor: administration of activated charcoal to bile duct-cannulated rats and dogs receiving an intravenous dose and use of drug transporter knockout rats” (Drug Metab Dispos, 2013)
